Assay results published in patent US6696475B2, “Substituted phenyl derivatives, their preparation and use” (NeuroSearch A/S, priority 1997, dated 2004).

Tests used:
[1] = molecular target: erythrocyte chloride channels; assay: Cl- conductance (GCl) from conductive netfluxes of Cl- and membrane potentials in suspensions of normal erythrocytes; type: cell-based, Human; details: suspension of normal erythrocytes; for Kd: read-out: KD-value for block of GCl
Text: (§1) The compounds of the present invention are potent blockers of chloride channels in normal as well as sickle cell erythrocytes.
(§2) All dose-response experiments were therefore performed by concomitant measurements of conductive neffluxes of Cl^− (JCl) and membrane potentials (Vm) in suspensions of erythrocytes (Bennekou, P. and Christophersen, P. (1986), Flux ratio of Valinomycin—Mediated K^+ Fluxes across the Human Red Cell Membrane in the presence of the Protronophore CCCP. J. Membrane Biol. 93, 221-227. ). The membrane Cl^− conductances (GCl) were calculated by the following equation (Hodgkin, A. L. and Huxley, A. F. (1952) The components of membrane conductance in the giant axon of Loligo. J. Physiol. Lond. 116, 449-472): [formula]
(§3) where F is the Faraday constant, ECl is the Nernst potential for the Cl-ion.

bone resorbtion = details: in vitro; cited from earlier work
erythrocytes = assay: Valinomycin induced cell volume loss, relative volume of packed cells; type: cell-based; details: valinomycin for 5 min; volume loss 26% without compound
Protocol: Inducing a massive water and salt loss (KCl) by addition the K^+-ionophore valinomycin to the suspension for 5 min reduced the cell volume by 26%.

Normal erythrocytes = assay: K+-flux from normal erythrocytes, extracellular K+-concentration vs time; type: cell-based; details: 10 μM
Text: (§4) Deoxygenation induced permeability increases of sickle cells were estimated by measuring the extracellular K^+-concentration vs time. […] The K^+ flux from oxygenated sickle erythrocytes was 2-3 times higher than from normal erythrocytes and these fluxes was accelerated 4-8 times upon deoxygenation.

[2] = tested on: erythrocyte chloride channels (homozygoteous sickle cell erythrocytes); assay: Cl- conductance (GCl) in sickle cell erythrocytes; type: cell-based, Human; details: oxygenated as well as deoxygenated homozygoteous sickle cell erythrocytes
Text: as §1, §2, §3

mice = details: mouse, in vivo
Protocol: (§5) 3-Trifluoromethylphenyl-2-carboxyphenyl urea is non-toxic to mice and rats at concentrations up to 250 mg/kg i.p. and i.v.

rats = details: rat, in vivo
Protocol: as §5

sickle erythrocytes = assay: Deoxygenation induced permeability increase of sickle cells, extracellular K+-concentration vs time; type: cell-based; details: 10 μM
Text: as §4

proton pump = details: cited from earlier work
bone degration = details: growing yound rats; cited from earlier work

O=C(Nc1cccc(C(F)(F)F)c1)Nc1ccc(Br)cc1-c1nnn[nH]1 [3-Trifluoromethylphenyl-4-bromo-2-(5-tetrazolyl)phenyl Urea]
Kd [1]: 1900 nM

CC(=O)Nc1nnc(S(N)(=O)=O)s1 [acetacolamide]
effect on bone resorbtion, pit formation (bone resorbtion): effective

O=C(Nc1cccc(C(F)(F)F)c1)Nc1ccccc1C(=O)O [N-3-Trifluoromethylphenyl-N′-2-carboxyphenyl Urea]
cell volume loss in presence of compound (erythrocytes): 7%
block of GCl [1]: more than 95%
Kd [1]: 1300 nM
effect on K+-fluxes of normal erythrocytes (Normal erythrocytes): insensitive
block of GCl compared with normal erythrocytes [2]: equipotently blocked
non-toxic dose (mice): up to 250 mg/kg
non-toxic dose (rats): up to 250 mg/kg
basal K+-flux from sickle erythrocytes (sickle erythrocytes): normalised
deoxygenation induced K+ flux component (sickle erythrocytes; deoxygenated sickle erythrocytes): nearly abolished

CN(C)S(=O)(=O)c1ccc(-c2ccc(NC(=O)Nc3cccc(C(F)(F)F)c3)c(-c3nnn[nH]3)c2)cc1 [N-(3-Trifluoromethylphenyl)-N′-(4′-(N,N-dimethylsulfamoyl)-2-(1-H-tetrazol-5-yl)-4-biphenyl) urea]
Kd [1]: 300 nM
melting point: 258 to 260 °C

CO/C1=C\C(C)=C\[C@@H](C)[C@@H](O)[C@@H](C)C/C(C)=C/C=C/[C@H](OC)[C@@H]([C@@H](C)[C@@H](O)[C@H](C)[C@@]2(O)C[C@@H](O)[C@H](C)[C@@H](C(C)C)O2)OC1=O [bafilomycin A1]
block of the proton pump (proton pump): extremely potent, reversible inhibitor
effect on bone degration (bone degration): depresses
effect on bone resorbtion, pit formation (bone resorbtion): completely eliminates

COc1ccc2[nH]c([S+]([O-])Cc3ncc(C)c(OC)c3C)nc2c1 (centres unmarked) [omeprazol]
block of the proton pump (proton pump): ineffective
